For data set [1], the system named is PPC-1 bulk cells or CD44+ DU145 cells. The data set can be described thus: EdU incorporation flow cytometry. Particulars: miR-141-overexpressing cells; 30 nM oligos 48 h, 10 μM EdU 2.5 h. The class given is cell-based, human. The protocol: EdU (5-ethynyl-2′-deoxyuridine) is a nucleoside analog to thymidine and incorporated into DNA during active DNA synthesis. EdU incorporation assays were performed using Click-iT EdU Flow Cytometer Assays kit (C10418, Invitrogen) per manufacturer's instructions. Briefly, PPC-1 bulk cells or CD44^+ DU145 cells transfected with negative control or miR-141 oligos (30 nM) for 48 h were pulsed with 10 μM EdU for 2.5 h and harvested. After fixation and permeabilization, cells were processed for EdU immunostaining and also labeled with Pacific Blue azide (1:200) and finally analyzed on a flow cytometer.
On the technique in general: In flow cytometry, cells or beads pass a laser one at a time.

The test system of data set [2] is CD44+ Du145 cells. The data set can be described thus: Clonal and sphere formation assays. The class given is cell-based, human. The following applies: miR-141 vs NC oligos, 30 nM, 48 h transfection. The protocol:
Average % of CD44^+ cells (as determined by flow analysis; n=3-5) is indicated for each cell type (UD, undetectable). […] Purified CD44^+ Du145 cells were transfected with NC or miR-141 oligos (30 nM, 48 h) and then plated for clonal (1D & 1E) and sphere (1F) assays. Bars represent mean±SD. *, P<0.05; **, P<0.01. […] Shown are tumor images, cell numbers injected (100,000 cells per injection for all models), site of injection (s.c, subcutaneously) and days (d) when tumors were harvested. Tumor weight and incidences with corresponding P values are also indicated. ns, not significant. […] For 1st generation (1°) sphere assays, 1,000 cells per well were plated in triplicate for each group in 12-well plate and results scored in 11 days. For 2nd generation (2°), the 1° spheres were harvested, digested with Collagenase and Trypsin into single cells, 1,000 cells/well were plated, and results scored in 10 days. Quantification of the colonies was plotted (1 L; **P<0.01). […]
For clonal assays, cultured prostate cancer cells or human prostate cancer cells freshly purified from patient primary tumors were plated at a clonal density (i.e., 100 cells/well) in a 6-well plate. The number of holoclones (33) was counted several days later. […] Floating spheres that arose in 1-2 weeks were counted. […]

With “miR-141: miR-141 mirVana mimics (Life Technologies); microRNA-141 oligonucleotide may have SEQ ID NO: 1; in some experiments over-expressed by lentiviral vectors (UAACACUGUCUGGUAAAGAUGG; listed as RNA, further chemistry not given here) [miR-141 mirVana mimics (Life Technologies); in some experiments over-expressed by lentiviral vectors]”, in data set [1], the EdU incorporation entry is “reduced”. In addition, in data set [2], the clonogenic capacity entry was “inhibited” and the sphere-forming capacity result was “inhibited”.

These data come from patent publication US10202604B2, “Methods of using microRNA-141” (Stemirna Therapeutics Co., Ltd., priority 2016, dated 2019).
